How the values were obtained:
Assay type in all cases: functional
Conditions in all cases: read-out: GI
HCT-15 = assay: Growth inhibition of human HCT-15 cells at 10 uM incubated for 48 hrs by sulforhodamine B assay relative to control
M14 = assay: Growth inhibition of human M14 cells at 10 uM incubated for 48 hrs by sulforhodamine B assay relative to control
HCT-116 = assay: Growth inhibition of human HCT-116 cells at 10 uM incubated for 48 hrs by sulforhodamine B assay relative to control
MDA-MB-435 = assay: Growth inhibition of human MDA-MB-435 cells at 10 uM incubated for 48 hrs by sulforhodamine B assay relative to control
T47D = assay: Growth inhibition of human T47D cells at 10 uM incubated for 48 hrs by sulforhodamine B assay relative to control
HL-60(TB) = assay: Growth inhibition of human HL-60(TB) cells at 10 uM incubated for 48 hrs by sulforhodamine B assay relative to control
LOX IMVI = assay: Growth inhibition of human LOX IMVI cells at 10 uM incubated for 48 hrs by sulforhodamine B assay relative to control
MDA-MB-468 = assay: Growth inhibition of human MDA-MB-468 cells at 10 uM incubated for 48 hrs by sulforhodamine B assay relative to control
SW-620 = assay: Growth inhibition of human SW-620 cells at 10 uM incubated for 48 hrs by sulforhodamine B assay relative to control
KM12 = assay: Growth inhibition of human KM12 cells at 10 uM incubated for 48 hrs by sulforhodamine B assay relative to control
COLO 205 = assay: Growth inhibition of human COLO 205 cells at 10 uM incubated for 48 hrs by sulforhodamine B assay relative to control
SF-539 = assay: Growth inhibition of human SF-539 cells at 10 uM incubated for 48 hrs by sulforhodamine B assay relative to control
NCI-H522 = assay: Growth inhibition of human NCI-H522 cells at 10 uM incubated for 48 hrs by sulforhodamine B assay relative to control
ACHN = assay: Growth inhibition of human ACHN cells at 10 uM incubated for 48 hrs by sulforhodamine B assay relative to control
RXF 393 = assay: Growth inhibition of human RXF 393 cells at 10 uM incubated for 48 hrs by sulforhodamine B assay relative to control
HOP-92 = assay: Growth inhibition of human HOP-92 cells at 10 uM incubated for 48 hrs by sulforhodamine B assay relative to control
SF-268 = assay: Growth inhibition of human SF-268 cells at 10 uM incubated for 48 hrs by sulforhodamine B assay relative to control
DU-145 = assay: Growth inhibition of human DU-145 cells at 10 uM incubated for 48 hrs by sulforhodamine B assay relative to control
SN12C = assay: Growth inhibition of human SN12C cells at 10 uM incubated for 48 hrs by sulforhodamine B assay relative to control
RPMI-8226 = assay: Growth inhibition of human RPMI-8226 cells at 10 uM incubated for 48 hrs by sulforhodamine B assay relative to control
U-251 = assay: Growth inhibition of human U-251 cells at 10 uM incubated for 48 hrs by sulforhodamine B assay relative to control
NCI-H226 = assay: Growth inhibition of human NCI-H226 cells at 10 uM incubated for 48 hrs by sulforhodamine B assay relative to control
MDA-MB-231 = assay: Growth inhibition of human MDA-MB-231 cells at 10 uM incubated for 48 hrs by sulforhodamine B assay relative to control
SK-OV-3 = assay: Growth inhibition of human SK-OV-3 cells at 10 uM incubated for 48 hrs by sulforhodamine B assay relative to control
TK-10 = assay: Growth inhibition of human TK-10 cells at 10 uM incubated for 48 hrs by sulforhodamine B assay relative to control
CCRF-CEM = assay: Growth inhibition of human CCRF-CEM cells at 10 uM incubated for 48 hrs by sulforhodamine B assay relative to control
SF-295 = assay: Growth inhibition of human SF-295 cells at 10 uM incubated for 48 hrs by sulforhodamine B assay relative to control
UO-31 = assay: Growth inhibition of human UO-31 cells at 10 uM incubated for 48 hrs by sulforhodamine B assay relative to control
HT-29 = assay: Growth inhibition of human HT-29 cells at 10 uM incubated for 48 hrs by sulforhodamine B assay relative to control
UACC-62 = assay: Growth inhibition of human UACC-62 cells at 10 uM incubated for 48 hrs by sulforhodamine B assay relative to control
A549 = assay: Growth inhibition of human A549/ATCC cells at 10 uM incubated for 48 hrs by sulforhodamine B assay relative to control
SR = assay: Growth inhibition of human SR cells at 10 uM incubated for 48 hrs by sulforhodamine B assay relative to control
PC-3 = assay: Growth inhibition of human PC-3 cells at 10 uM incubated for 48 hrs by sulforhodamine B assay relative to control
OVCAR-8 = assay: Growth inhibition of human OVCAR-8 cells at 10 uM incubated for 48 hrs by sulforhodamine B assay relative to control
NCI-H322M = assay: Growth inhibition of human NCI-H322M cells at 10 uM incubated for 48 hrs by sulforhodamine B assay relative to control
NCI-H23 = assay: Growth inhibition of human NCI-H23 cells at 10 uM incubated for 48 hrs by sulforhodamine B assay relative to control
UACC-257 = assay: Growth inhibition of human UACC-257 cells at 10 uM incubated for 48 hrs by sulforhodamine B assay relative to control
SK-MEL-5 = assay: Growth inhibition of human SK-MEL-5 cells at 10 uM incubated for 48 hrs by sulforhodamine B assay relative to control
Hs-578T = assay: Growth inhibition of human Hs-578T cells at 10 uM incubated for 48 hrs by sulforhodamine B assay relative to control
HCC 2998 = assay: Growth inhibition of human HCC 2998 cells at 10 uM incubated for 48 hrs by sulforhodamine B assay relative to control
OVCAR-5 = assay: Growth inhibition of human OVCAR-5 cells at 10 uM incubated for 48 hrs by sulforhodamine B assay relative to control
SNB-19 = assay: Growth inhibition of human SNB-19 cells at 10 uM incubated for 48 hrs by sulforhodamine B assay relative to control
OVCAR-4 = assay: Growth inhibition of human OVCAR-4 cells at 10 uM incubated for 48 hrs by sulforhodamine B assay relative to control
NCI-H460 = assay: Growth inhibition of human NCI-H460 cells at 10 uM incubated for 48 hrs by sulforhodamine B assay relative to control

Structure (SMILES): O=C(Cn1nnc2ccccc21)Nc1ccc(-c2nc3ccccc3s2)cc1
- inhibition of growth at 10 µM (HCT-15): 8.49%
- inhibition of growth at 10 µM (M14): 9.36%
- inhibition of growth at 10 µM (HCT-116): 2.6%
- inhibition of growth at 10 µM (MDA-MB-435): 4.09%
- inhibition of growth at 10 µM (T47D): 33.1%
- inhibition of growth at 10 µM (HL-60(TB)): 9.24%
- inhibition of growth at 10 µM (LOX IMVI): 15.8%
- inhibition of growth at 10 µM (MDA-MB-468): 124%
- inhibition of growth at 10 µM (SW-620): 5.47%
- inhibition of growth at 10 µM (KM12): 8.6%
- inhibition of growth at 10 µM (COLO 205): -5.13%
- inhibition of growth at 10 µM (SF-539): 28.8%
- inhibition of growth at 10 µM (NCI-H522): 20.8%
- inhibition of growth at 10 µM (ACHN): -9.93%
- inhibition of growth at 10 µM (RXF 393): 0.05%
- inhibition of growth at 10 µM (HOP-92): 26.9%
- inhibition of growth at 10 µM (SF-268): 7.63%
- inhibition of growth at 10 µM (DU-145): 26%
- inhibition of growth at 10 µM (SN12C): -0.79%
- inhibition of growth at 10 µM (RPMI-8226): 14.7%
- inhibition of growth at 10 µM (U-251): 10.4%
- inhibition of growth at 10 µM (NCI-H226): 32.5%
- inhibition of growth at 10 µM (MDA-MB-231): 5.25%
- inhibition of growth at 10 µM (SK-OV-3): -4.22%
- inhibition of growth at 10 µM (TK-10): 5.23%
- inhibition of growth at 10 µM (CCRF-CEM): 30.3%
- inhibition of growth at 10 µM (SF-295): 15.2%
- inhibition of growth at 10 µM (UO-31): 13.5%
- inhibition of growth at 10 µM (HT-29): -0.75%
- inhibition of growth at 10 µM (UACC-62): 2.9%
- inhibition of growth at 10 µM (A549): 6.45%
- inhibition of growth at 10 µM (SR): 59.9%
- inhibition of growth at 10 µM (PC-3): 16.7%
- inhibition of growth at 10 µM (OVCAR-8): 1.53%
- inhibition of growth at 10 µM (NCI-H322M): -2.72%
- inhibition of growth at 10 µM (NCI-H23): 19.3%
- inhibition of growth at 10 µM (UACC-257): 5.5%
- inhibition of growth at 10 µM (SK-MEL-5): 25.7%
- inhibition of growth at 10 µM (Hs-578T): -11.5%
- inhibition of growth at 10 µM (HCC 2998): 6.26%
- inhibition of growth at 10 µM (OVCAR-5): -4.45%
- inhibition of growth at 10 µM (SNB-19): -2.9%
- inhibition of growth at 10 µM (OVCAR-4): 27.8%
- inhibition of growth at 10 µM (NCI-H460): 17%

Source: ChEMBL document CHEMBL4765227, “Hit to lead optimization of a series of N-[4-(1,3-benzothiazol-2-yl)phenyl]acetamides as monoacylglycerol lipase inhibitors with potential anticancer activity” (Eur J Med Chem, 2016)
